This test is described as follows: T1 values measured using NMR. Further details: unit not given here.

For the substance Fe(Me-bik)3](BF4)2.25H2O, the “T1 at 23° C.” value by setting is: (1 mg/mL) 2.9433; (2 mg/mL) 2.8944; (4 mg/mL) 2.7392; (8 mg/mL) 2.7413. Also, the “T1 at 40° C.” value reads like this: (1 mg/mL) 4.2093; (2 mg/mL) 3.9614; (4 mg/mL) 3.4784; (8 mg/mL) 3.434. In addition, the “T1 at 60° C.” value reads like this: (1 mg/mL) 5.3784; (2 mg/mL) 4.9954; (4 mg/mL) 4.2761; (8 mg/mL) 4.172.

Source of the values: US20220160901A1, “Stimuli-Responsive Compositions, Imaging Systems, and Methods for Using the Same for Biomedical Applications” (The Regents of the University of California, priority 2019, published 2022).
